ChEMBL document CHEMBL3286251, “Treatment of Immunological or Inflammatory Disorders with ITK Kinase Inhibitors” (ACS Med Chem Lett, 2014)

Target: T1, Tyrosine-protein kinase ITK/TSK (Homo sapiens, UniProt Q08881)
T1 sequence (Q08881 whole entry): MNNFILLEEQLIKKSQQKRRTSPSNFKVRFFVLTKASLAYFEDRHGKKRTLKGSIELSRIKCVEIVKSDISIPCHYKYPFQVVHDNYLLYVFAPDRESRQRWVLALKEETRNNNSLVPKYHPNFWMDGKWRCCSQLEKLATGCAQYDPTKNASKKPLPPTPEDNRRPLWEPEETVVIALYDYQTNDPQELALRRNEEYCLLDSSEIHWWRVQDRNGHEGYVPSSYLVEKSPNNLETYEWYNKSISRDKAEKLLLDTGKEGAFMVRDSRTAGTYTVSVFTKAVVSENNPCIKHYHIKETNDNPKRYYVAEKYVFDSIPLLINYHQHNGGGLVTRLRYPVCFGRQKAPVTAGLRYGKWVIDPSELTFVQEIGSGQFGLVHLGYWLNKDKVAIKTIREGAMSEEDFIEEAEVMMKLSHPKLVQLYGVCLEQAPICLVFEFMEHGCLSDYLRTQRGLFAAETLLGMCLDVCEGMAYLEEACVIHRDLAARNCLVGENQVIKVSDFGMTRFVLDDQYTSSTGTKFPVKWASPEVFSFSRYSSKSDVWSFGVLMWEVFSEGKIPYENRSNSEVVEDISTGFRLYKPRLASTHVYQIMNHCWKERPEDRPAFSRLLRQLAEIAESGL
Assay: Inhibition of ITK (unknown origin) using Acetyl-EFPIYDFLPAKKK-NH2 peptide as substrate after 1 hr by LC-MS analysis

Ki: < 0.1 nM
Structure (SMILES): CC12Cc3[nH]nc(C(=O)Nc4cnn(C(CS(C)(=O)=O)c5cccnc5)c4)c3CC1C2 (stereo unspecified)
